# Laboratory results reported in ChEMBL document CHEMBL5291721, “A preclinical secondary pharmacology resource illuminates target-adverse drug reaction associations of marketed drugs” (Nat Commun, 2023).
# How the values were obtained:
# Format in all cases: functional
# [1] = target: T1, Prostaglandin G/H synthase 1 (Rattus norvegicus, UniProt Q63921)
# T1 sequence (Q63921 whole entry): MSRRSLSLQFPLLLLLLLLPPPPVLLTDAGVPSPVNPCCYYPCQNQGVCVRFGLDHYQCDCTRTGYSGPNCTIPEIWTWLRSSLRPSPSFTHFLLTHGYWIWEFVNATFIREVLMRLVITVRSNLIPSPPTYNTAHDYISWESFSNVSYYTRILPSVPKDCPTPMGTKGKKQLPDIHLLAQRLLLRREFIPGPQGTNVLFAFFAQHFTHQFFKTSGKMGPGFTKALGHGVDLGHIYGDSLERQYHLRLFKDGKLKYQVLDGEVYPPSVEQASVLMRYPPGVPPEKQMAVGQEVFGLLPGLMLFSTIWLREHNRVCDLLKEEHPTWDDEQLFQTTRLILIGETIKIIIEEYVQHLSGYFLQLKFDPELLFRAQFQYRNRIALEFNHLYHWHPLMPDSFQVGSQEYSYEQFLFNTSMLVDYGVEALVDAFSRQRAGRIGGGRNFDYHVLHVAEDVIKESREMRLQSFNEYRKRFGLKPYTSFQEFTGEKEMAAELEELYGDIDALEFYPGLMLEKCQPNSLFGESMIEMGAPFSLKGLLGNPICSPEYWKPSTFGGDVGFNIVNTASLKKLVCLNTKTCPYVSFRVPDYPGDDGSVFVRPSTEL
# Bile acid receptor = target: T2, Bile acid receptor (Homo sapiens, UniProt Q96RI1)
# T2 sequence (Q96RI1 whole entry): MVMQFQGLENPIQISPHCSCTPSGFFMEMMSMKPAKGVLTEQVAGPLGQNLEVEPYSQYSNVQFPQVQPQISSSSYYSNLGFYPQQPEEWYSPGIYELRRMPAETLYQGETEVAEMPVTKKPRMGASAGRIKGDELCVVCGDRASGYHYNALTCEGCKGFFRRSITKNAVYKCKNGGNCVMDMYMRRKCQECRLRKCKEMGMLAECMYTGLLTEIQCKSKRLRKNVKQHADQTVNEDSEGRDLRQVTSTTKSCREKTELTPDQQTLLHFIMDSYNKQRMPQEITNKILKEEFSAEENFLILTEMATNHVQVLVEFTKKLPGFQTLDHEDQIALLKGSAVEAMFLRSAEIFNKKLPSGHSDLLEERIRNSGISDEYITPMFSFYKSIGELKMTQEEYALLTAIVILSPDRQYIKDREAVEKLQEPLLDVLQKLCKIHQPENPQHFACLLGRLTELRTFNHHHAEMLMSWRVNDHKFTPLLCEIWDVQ
# [2] = target: T3, Oxysterols receptor LXR-alpha (Homo sapiens, UniProt Q13133)
# T3 sequence (Q13133 whole entry): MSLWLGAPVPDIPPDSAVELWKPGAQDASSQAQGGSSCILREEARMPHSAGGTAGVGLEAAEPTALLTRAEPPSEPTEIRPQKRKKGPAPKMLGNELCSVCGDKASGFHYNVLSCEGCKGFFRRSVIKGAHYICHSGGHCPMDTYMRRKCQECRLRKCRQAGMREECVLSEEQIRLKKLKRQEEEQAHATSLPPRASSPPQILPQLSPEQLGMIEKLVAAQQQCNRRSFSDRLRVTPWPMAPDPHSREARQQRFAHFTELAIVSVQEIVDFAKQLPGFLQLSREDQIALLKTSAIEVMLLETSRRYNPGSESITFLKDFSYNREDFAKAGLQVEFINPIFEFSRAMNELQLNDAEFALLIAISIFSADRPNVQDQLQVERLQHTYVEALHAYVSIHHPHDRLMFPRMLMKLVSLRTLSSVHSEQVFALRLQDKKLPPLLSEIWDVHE
# [3] = target: T4, Oxysterols receptor LXR-beta (Homo sapiens, UniProt P55055)
# T4 sequence (P55055 whole entry): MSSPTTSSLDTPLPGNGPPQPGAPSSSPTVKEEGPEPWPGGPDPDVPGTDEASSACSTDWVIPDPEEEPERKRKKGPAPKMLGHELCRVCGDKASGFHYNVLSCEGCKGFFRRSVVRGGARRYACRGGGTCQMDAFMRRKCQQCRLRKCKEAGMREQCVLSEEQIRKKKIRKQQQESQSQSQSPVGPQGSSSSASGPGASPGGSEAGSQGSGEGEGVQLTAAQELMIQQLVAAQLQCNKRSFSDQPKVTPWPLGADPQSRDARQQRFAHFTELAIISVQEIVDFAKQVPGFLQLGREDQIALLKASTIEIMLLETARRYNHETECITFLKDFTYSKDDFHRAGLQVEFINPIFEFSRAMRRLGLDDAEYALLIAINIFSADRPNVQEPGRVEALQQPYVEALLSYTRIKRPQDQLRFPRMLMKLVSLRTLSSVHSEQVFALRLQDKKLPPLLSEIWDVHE
# [4] = target: T4, Oxysterols receptor LXR-beta; remark: listed apart in the source
# Also: assay procedure not described here.
AC50 (Bile acid receptor) [µM],AC50 [2] [µM],AC50 [3] [µM],AC50 [4] [µM],Compound,AC50 [1] [µM]
–,–,–,–,COC(=O)[C@@H]1CC2=CC(=O)CC[C@]2(C)[C@@]23O[C@@H]2C[C@@]2(C)[C@@H](CC[C@@]24CCC(=O)O4)[C@H]13 [EPLERENONE],> 30
> 10,> 30,> 30,2.7,COc1ccc2c(c1)C(=O)N(CCc1ccc(S(=O)(=O)NC(=O)NC3CCCCC3)cc1)C(=O)C2(C)C [GLIQUIDONE],–
